Results taken from patent US20070117182A1, “Nucleic acids conferring transcriptional responsiveness on the RANKL gene promoter and uses thereof” (Wisconsin Alumni Research Foundation, priority 2005, published 2007).

Tested on: RANKL gene upstream regions D1-D5
Assay: ChIP analysis of transcription factor binding to the RANKL gene in ST2 cells
Type: cell-based, mouse
Details: 6 hours
Description: FIG. 4. Confirmation of ChIP/chip data using ChIP. A) Linear arrangement of RANKL locus re-oriented 5′ to 3′ (left to right) indicating the positions of D5 to D1, P2, and P1/TSS. Designation of primer sets used for detection in ChIP is indicated. B) ST2 cells were treated with either vehicle or 1,25(OH)2D3 and then subjected to ChIP using antibodies to VDR, RXR or IgG. Precipitated DNA was evaluated using the primer sets identified in A.
FIG. 5. […] ST2 cells were treated with the above hormones and after 6 hours subjected to ChIP analysis using antibodies to VDR, RXR, GR, C/EBP, β, RNA pol II, and IgG. Precipitated DNA was evaluated for enrichment of the indicated regions of the RANKL gene.
FIG. 10. ChIP analysis of transcription factor binding to RL D5, the TSS and intervening regions of the RANKL locus in response to 1,25(OH)2D3, forskolin and oncostatin M (OSM). ST2 cells were treated for 6 hr with the indicated inducing agents and then subjected to ChIP analysis using antibodies to the indicated factors. Precipitated DNA was analyzed by PCR for enrichment of IS7, D5, IS6 and the TSS of the RANKL gene locus. See text for details of results.
The isolated DNA was then evaluated by PCR using primers as depicted in the diagram seen in FIG. 4a which were designed to amplify small DNA segments within the 5 regions as well as segments located at intervening sites (IS) outside the five regions.
The inventors hypothesized that GC's might perhaps enhance VDR binding to RANKL regulatory regions. […] The inventors focused on the RL-CCL region (D5) and amplified the precipitated DNA using primers to this region of the gene as well as to D4, D3 and TSS and intervening regions. […] The inventors also explored the possibility that C/EBPbeta might similarly participate in the RANKL activation process. C/EBPbeta plays a significant role in the regulation of osteoblastic genes, and is found associated with both 1,25(OH)2D3 and GC target genes.
In addition to 1,25(OH)2D3 and GCs, RANKL expression is also known to be modulated by such factors as PTH, PGE2, the gp130-activating cytokines IL-6 and OSM, as well as IL-1beta and TNFalpha. […] Forskolin was used as substitute for PTH, however, as ST2 cells are deficient in PTH receptor (PTHR). Both PTH/forskolin and PGE2 are known to induce RANKL gene expression via CREB whereas OSM functions via Stat3. […] The inventors therefore explored the possibility that the RL-CCL might represent a focal target for these inducers via either CREB or Stat3 in the RANKL gene locus. ST2 cells were treated with either vehicle, 1,25(OH)2D3, forskolin or OSM for a 6 hour period and then subjected to a ChIP analysis using antibodies to VDR, C/EBPbeta, CREB, phospho-CREB, ATF-2, ATF-4, Stat3, RNA pol II and control IgG. Isolated DNA was then subjected to amplification using primers corresponding to the D5 region (RL-CCL) of the RANKL gene. As controls, the inventors also assessed the extent to which the immunoprecipitations led to the enrichment of DNA at sites surrounding the D5 region of the RANKL gene.

## C=C1/C(=C\C=C2/CCC[C@]3(C)[C@@H]([C@H](C)CCCC(C)(C)O)CC[C@@H]23)C[C@@H](O)C[C@@H]1O [1,25(OH)2D3]
  CREB binding to the D5 region: modestly increased CREB association
  RNA pol II recruitment to D1-D5 sites and TSS: recruited
  Stat3 binding to the D5 region: some Stat3 binding can be seen
ChIP, -16, -22, -60, -69, -77 kb from TSS
  VDR and RXR binding at D1-D5: clearly enriched
Agent alone
  VDR binding to RANKL regulatory regions (D5): induced the binding of the VDR
